Experiments:
[1] = system: Pyricularia Oryzae; experiment: microbe, parasite or virus in culture; assay type: cell-based; conditions: 120 h, read-out: efficacy (inhibition of fungal growth)
[2] = system: Septoria tritici; experiment: Septoria tritici in vitro cell test; assay type: cell-based; conditions: Zymoseptoria tritici, 168 h; 20 ppm of active ingredient; liquid culture, 7 days incubation; read-out: efficacy (inhibition of fungal growth)
Description: • Solvent: DMSO • Culture medium: 1 g KH2PO4 (VWR), 1 g K2HPO4 (VWR), 0.5 g Urea (VWR), 3 g KNO3 (Prolabo), 10 g saccharose (VWR), 0.5 g MgSO4, 7H2O (Sigma), 0.07 g CaCl2, 2H2O (Prolabo), 0.2 mg MnSO4, H2O (Sigma), 0.6 mg CuSO4, 5H2O (Sigma), 7.9 mg ZnSO4, 7H2O (Sigma), 0.1 mg H3BO3 (Merck), 0.14 mg NaMoO4, 2H2O (Sigma), 2 mg thiamine (Sigma), 0.1 mg biotine (VWR), 4 mg FeSO4, 7H2O (Sigma), QSP 1 liter • Inoculum: spore suspension Fungicides were solubilized in DMSO and the solution used to prepare the required range of concentrations. […] A spore suspension of S. tritici was prepared and diluted to the desired spore density. Fungicides were evaluated for their ability to inhibit spore germination and mycelium growth in liquid culture assay. The compounds were added in the desired concentration to the culture medium with spores. […] Inhibition of fungal growth was determined by comparing the absorbance values in wells containing the fungicides with the absorbance in control wells without fungicides.

[3] = system: Sphaerotheca fuliginea; experiment: In vivo preventive test on Sphaerotheca fuliginea (powdery mildew on cucurbits); conditions: Podosphaera fuliginea, 192 h; 500 ppm of active ingredient; preventive spray on gherkin; evaluated 8 days after inoculation; read-out: efficacy
Description: (§1) The active ingredients were made soluble and homogenized in a mixture of Dimethyl sulfoxide/Acetone//Tween® 80 and then diluted in water to the desired concentration. The young plants of gherkin were treated by spraying the active ingredient prepared as described above. Control plants were treated only with an aqueous solution of Acetone/Dimethyl sulfoxide/Tween® 80. After 24 hours, the plants were contaminated by spraying the leaves with an aqueous suspension of Sphaerotheca fuliginea spores.

[4] = system: Alternaria alternata; experiment: Alternaria alternata in vitro cell test; assay type: cell-based; conditions: 120 h, 20 ppm of active ingredient, liquid culture, 5 days incubation, read-out: efficacy (inhibition of fungal growth)
Description: (§2) • Solvent: DMSO • Culture medium: 14.6 g anhydrous D-glucose (VWR), 7.1 g Mycological Peptone (Oxoid), 1.4 g granulated Yeast Extract (Merck), QSP 1 liter • Inoculum: spores suspension Fungicides were solubilized in DMSO and the solution used to prepare the required range of concentrations. […] A spore suspension of A. alternata was prepared and diluted to the desired spore density. Fungicides were evaluated for their ability to inhibit spore germination and mycelium growth in liquid culture assay. The compounds were added in the desired concentration to the culture medium with spores. After 5 days incubation, fungi-toxicity of compounds was determined by spectrometric measurement of mycelium growth. Inhibition of fungal growth was determined by comparing the absorbance values in wells containing the fungicides with the absorbance in control wells without fungicides.

[5] = system: Colletotrichum lindemuthianum; experiment: In vivo preventive test on Colletotrichum lindemuthianum (leaf spot on bean); conditions: 168 h, 500 ppm of active ingredient, preventive spray on bean, evaluated 7 days after inoculation, read-out: efficacy
Description: as §1, with “bean” for “gherkin”, “Colletotrichum lindemuthianum” for “Sphaerotheca fuliginea”

[6] = Measurement of LogP values by HPLC on reversed phase columns (EEC directive 79/831 Annex V.A8); assay type: physicochemical; conditions: method [a]: LC-UV, acidic range, 0.1% formic acid in water and acetonitrile; compounds of formula (I-1), Table 1
Description: Calibration was done with straight-chain alkan2-ones (with 3 to 16 carbon atoms) with known LogP values (measurement of LogP values using retention times with linear interpolation between successive alkanones). Lambda-max-values were determined using UV-spectra from 200 nm to 400 nm and the peak values of the chromatographic signals

[7] = system: Botrytis cinerea; experiment: In vivo preventive test on Botrytis cinerea (grey mould); conditions: 500 ppm of active ingredient, preventive spray on gherkin or cabbage, evaluated 4 to 5 days after inoculation, read-out: efficacy
Description: as §1, with “gherkin or cabbage” for “gherkin”, “Botrytis cinerea” for “Sphaerotheca fuliginea”

[8] = system: Pyrenophora teres; experiment: In vivo preventive test on Pyrenophora teres (net blotch on barley); conditions: 240 h, 500 ppm of active ingredient, preventive spray on barley, evaluated 10 days after inoculation, read-out: efficacy
Description: as §1, with “barley” for “gherkin”, “Pyrenophora teres” for “Sphaerotheca fuliginea”

[9] = system: Fusarium culmorum; experiment: Fusarium culmorum in vitro cell test; assay type: cell-based; conditions: 96 h, 20 ppm of active ingredient, liquid culture, 4 days incubation, read-out: efficacy (inhibition of fungal growth)
Description: • Solvent: DMSO • Culture medium: 14.6 g anhydrous D-glucose (VWR), 7.1 g Mycological Peptone (Oxoid), 1.4 g granulated Yeast Extract (Merck), QSP 1 liter • Inoculum: spore suspension • Fungicides were solubilized in DMSO and the solution used to prepare the required range of concentrations. The final concentration of DMSO used in the assay was ≤1%.
A spore suspension of F. culmorum was prepared and diluted to the desired spore density.
Fungicides were evaluated for their ability to inhibit spore germination and mycelium growth in liquid culture assay. The compounds were added in the desired concentration to the culture medium with spores. After 4 days incubation, fungi-toxicity of compounds was determined by spectrometric measurement of mycelium growth. Inhibition of fungal growth was determined by comparing the absorbance values in wells containing the fungicides with the absorbance in control wells without fungicides.

[10] = system: Colletotrichum lindemuthianum; experiment: Colletotrichum lindemuthianum in vitro cell test; assay type: cell-based; conditions: 144 h, 20 ppm of active ingredient, liquid culture, 6 days incubation, read-out: efficacy (inhibition of fungal growth)
Description: as §2, with “of C. lindemuthianum” for “of A. alternata”, “inhibit spores” for “inhibit spore”, “After 6” for “After 5”

[11] = system: Alternaria brassicae; experiment: In vivo preventive test on Alternaria brassicae (leaf spot on radish or cabbage); conditions: 144 h, 500 ppm of active ingredient, preventive spray on radish or cabbage, evaluated 6 days after inoculation, read-out: efficacy
Description: as §1, with “radish or cabbage” for “gherkin”, “Alternaria brassicae” for “Sphaerotheca fuliginea”

Row | Compound | inhibition at 20 ppm [1] | inhibition at 20 ppm [2] | pest or weed control at 500 ppm [3] | inhibition at 20 ppm [4] | pest or weed control at 500 ppm [5] | chromatographic logP [6] | pest or weed control at 500 ppm [7] | pest or weed control at 500 ppm [8] | inhibition at 20 ppm [9] | inhibition at 20 ppm [10] | pest or weed control at 500 ppm [11]
1 | Cc1cc(C2=NOCC(Cc3ccc(Cl)cc3Cl)N2)c(Oc2cccc(C)c2F)nn1 (racemic) [Compound I-007, (5RS)-5-(2,4-dichlorobenzyl)-3-[3-(2-fluoro-3-methylphenoxy)-6-methylpyridazin-4-yl]-5,6-dihydro-4H-1,2,4-oxadiazine] | 90 to 100% | 90 to 100% | 90 to 100% | 90 to 100% | 90 to 100% | 3.91 | 90 to 100% | 90 to 100% | 90 to 100% | 90 to 100% | 90 to 100%
2 | Cc1cc(C)cc(CC2CON=C(c3cc(C)nnc3Oc3cccc(Cl)c3F)N2)c1 (racemic) [Compound I-010, (5RS)-3-[3-(3-chloro-2-fluorophenoxy)-6-methylpyridazin-4-yl]-5-(3,5-dimethylbenzyl)-5,6-dihydro-4H-1,2,4-oxadiazine] | 90 to 100% | 90 to 100% | 90 to 100% | 90 to 100% | 90 to 100% | 4.01 | 90 to 100% | 90 to 100% | 90 to 100% | 90 to 100% | 90 to 100%
3 | Cc1ccc(C)c(CC2CON=C(c3cc(C)nnc3Oc3cccc(Cl)c3)N2)c1 (racemic) [Compound I-011, (5RS)-3-[3-(3-chlorophenoxy)-6-methylpyridazin-4-yl]-5-(2,5-dimethylbenzyl)-5,6-dihydro-4H-1,2,4-oxadiazine] | 90 to 100% | 90 to 100% | 90 to 100% | 90 to 100% | 90 to 100% | 3.7 | 90 to 100% | 90 to 100% | 70 to 79% | 90 to 100% | 90 to 100%
4 | Cc1ccc(C)c(CC2CON=C(c3cc(C)nnc3Oc3cccc(Cl)c3F)N2)c1 (racemic) [Compound I-012, (5RS)-3-[3-(3-chloro-2-fluorophenoxy)-6-methylpyridazin-4-yl]-5-(2,5-dimethylbenzyl)-5,6-dihydro-4H-1,2,4-oxadiazine] | 90 to 100% | 90 to 100% | 90 to 100% | 90 to 100% | 90 to 100% | 3.8 | 90 to 100% | 90 to 100% | 90 to 100% | 90 to 100% | 90 to 100%
5 | CCc1cccc(Oc2nnc(C)cc2C2=NOCC(Cc3ccc(C)cc3C)N2)c1F (racemic) [Compound I-014, (5RS)-5-(2,4-dimethylbenzyl)-3-[3-(3-ethyl-2-fluorophenoxy)-6-methylpyridazin-4-yl]-5,6-dihydro-4H-1,2,4-oxadiazine] | 90 to 100% | 90 to 100% | 90 to 100% | 90 to 100% | 90 to 100% | 4.12 | 90 to 100% | 90 to 100% | 90 to 100% | 90 to 100% | 90 to 100%
6 | C[C@@H](F)c1cc(C2=NOC[C@@H](Cc3ccc(Cl)cc3Cl)N2)c(Oc2cccc(C3CC3)c2F)nn1 (racemic) [Compound I-018, (5RS)-3-{3-(3-cyclopropyl-2-fluorophenoxy)-6-[(1RS)-1-fluoroethyl]pyridazin-4-yl}-5-(2,4-dichlorobenzyl)-5,6-dihydro-4H-1,2,4-oxadiazine] | 90 to 100% | 90 to 100% | 90 to 100% | 90 to 100% | 90 to 100% | 4.74 | 90 to 100% | 90 to 100% | 90 to 100% | 90 to 100% | 90 to 100%
7 | O=CN1C(c2cc(Cl)nnc2Oc2cccc(C3CC3)c2F)=NOCC1Cc1ccc(Cl)cc1Cl (racemic) [Compound I-025, (5RS)-3-[6-chloro-3-(3-cyclopropyl-2-fluorophenoxy)pyridazin-4-yl]-5-(2,4-dichlorobenzyl)-5,6-dihydro-4H-1,2,4-oxadiazine-4-carbaldehyde] | 90 to 100% | 90 to 100% | 90 to 100% | 90 to 100% | 90 to 100% | 4.93 | 90 to 100% | 90 to 100% | 90 to 100% | 90 to 100% | 90 to 100%

Reference: patent publication US12543738B2 (Bayer Aktiengesellschaft, priority 2020, dated 2026)
